We go through eight compounds from patent US20100240084A1, “USE OF THE PROTIEN MABA (FABG1) OF MYCOBACTERIUM TUBERCULOSIS FOR DESIGNING AND SCREENING ANTIBIOTICS” (priority 2002, published 2010).

The inhibition is the percentage by which the read-out fell short of the control. Higher therefore signals strong suppression. As usually defined, the Ki is a dissociation constant, usually derived from enzyme kinetics or from competition with a known ligand. What is called Km is the substrate concentration at which the rate is half of its maximum. Broadly, the kcat is the number of substrate molecules converted per active site and unit of time at saturation.

In data set [1] the target is T1, protein MabA (Mycobacterium tuberculosis, UniProt P9WGT3). The data set can be described thus: Inhibition of the β-ketoacyl reductase activity of MabA after preincubation with antibiotic, NADPH and MnCl2. It is filed as biochemical.
T1 sequence (P9WGT3 whole entry, looked up): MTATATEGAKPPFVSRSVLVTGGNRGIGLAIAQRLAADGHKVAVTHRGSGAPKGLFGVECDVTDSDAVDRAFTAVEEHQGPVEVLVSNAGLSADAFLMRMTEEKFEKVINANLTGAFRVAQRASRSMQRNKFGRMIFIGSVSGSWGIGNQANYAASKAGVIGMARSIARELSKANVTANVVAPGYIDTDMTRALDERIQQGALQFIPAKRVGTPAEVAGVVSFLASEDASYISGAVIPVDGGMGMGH
Data set [2] addresses β-ketoacyl reductase. The conditions noted are these: Kikuchi et al., 1989, cited from earlier work.
Data set [3] concerns the target enoyl-reductase. The conditions noted are these: Kikuchi et al., 1989, cited from earlier work.
Data set [4] concerns the target T2, InhA (Mycobacterium tuberculosis, UniProt P9WGR1). The conditions noted are these: 100 μM ETH, in the presence of MnCl2 and NADH.
The conditions of data set [5]: aqueous solutions; Constantinides & Steim, 1985; cited from earlier work.
Data set [6] deals with T2, InhA. The conditions noted are these: cited from earlier work.
For data set [7], the target named is T1, protein MabA. Kind of data set: MabA enzymatic kinetics test (NADPH oxidation at 340 nm).
Data set [8] has as its system CC(=O)CC(=O)SCCNC(=O)CCNC(=O)[C@H](O)C(C)(C)COP(=O)(O)OP(=O)(O)OC[C@H]1O[C@@H](n2cnc3c(N)ncnc32)[C@H](O)[C@@H]1OP(=O)(O)O. Kind of data set: purified protein, by the assay type.
In data set [9] the test system is CCCCCCC(=O)C(=O)SCCNC(=O)CCNC(=O)[C@H](O)C(C)(C)COP(=O)(O)OP(=O)(O)OC[C@H]1O[C@@H](n2cnc3c(N)ncnc32)[C@H](O)[C@@H]1OP(=O)(O)O. The data set can be described thus: purified protein, by the assay type.
Data set [10] has as its system CCCCCCCCCCC(=O)C(=O)SCCNC(=O)CCNC(=O)[C@H](O)C(C)(C)COP(=O)(O)OP(=O)(O)OC[C@H]1O[C@@H](n2cnc3c(N)ncnc32)[C@H](O)[C@@H]1OP(=O)(O)O. Kind of data set: purified protein, by the assay type.
Setting [11] is: other: section 4.1, 25° C., 80 mM sodium phosphate, NADPH Km at 460 μM acetoacetyl-CoA, β-ketoacyl-CoA Km at 100 μM NADPH.

T2 sequence (P9WGR1 whole entry, looked up): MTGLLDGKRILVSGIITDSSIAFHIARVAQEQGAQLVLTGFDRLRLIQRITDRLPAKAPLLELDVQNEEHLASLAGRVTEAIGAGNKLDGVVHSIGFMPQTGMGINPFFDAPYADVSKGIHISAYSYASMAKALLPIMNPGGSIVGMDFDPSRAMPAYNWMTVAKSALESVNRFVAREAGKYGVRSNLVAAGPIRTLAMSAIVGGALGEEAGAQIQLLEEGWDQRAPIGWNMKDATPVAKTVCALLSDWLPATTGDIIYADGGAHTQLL

For `NNC(=O)c1ccncc1` [isoniazid, isonicotinic acid hydrazide], the “inhibition of the activity of MabA compared with the control without INH” value in data set [1] (100 μM INH, MabA 150 nM preincubated 2 hours with 100 μM NADPH and 1 μM MnCl2, acetoacetyl-CoA substrate) stood at 44±3%. In data set [1] (2 mM isoniazid, MabA 150 nM preincubated 2 hours with 100 μM NADPH and 1 μM MnCl2, acetoacetyl-CoA substrate), this compound displayed an inhibition at 2000 µM of 62 ± 6%. The “effect of INH on the activity of MabA in the absence of MnCl2” value in data set [1] (absence of MnCl2 in the reaction) was “non-significant reduction”. Moreover, the figures for the Ki in data set [2] and in data set [3] were 0.353 mM and 5.5 mM, respectively. The “inhibition of β-ketoacyl reductase” value in data set [2] (isoniazid 2 mM) is listed as 93%. In addition, in [3] (isoniazid 2 mM), the inhibition of enoyl-reductase is on record as 26%.
For `CCc1cc(C(N)=S)ccn1` [ETH, ethionamide], in data set [1] (100 μM ETH, conditions of inhibition by INH, same result as InhA (activity unchanged)), the “effect on the activity of MabA” value is listed as “same result”. Moreover, in [4], the “effect on the activity of InhA” value was “unchanged”.
For the compound `CCCCCCCCCCCCCCCC(=O)SCCNC(=O)CCNC(=O)[C@H](O)C(C)(C)COP(=O)(O)OP(=O)(O)OC[C@H]1O[C@@H](n2cnc3c(N)ncnc32)[C@H](O)[C@@H]1OP(=O)(O)O` [palmitoyl-CoA], the “CMC (critical micellar concentration)” value in data set [5] is 70 µM.
Regarding `C/C=C/C(=O)SCCNC(=O)CCNC(=O)[C@H](O)C(C)(C)COP(=O)(O)OP(=O)(O)OC[C@H]1O[C@@H](n2cnc3c(N)ncnc32)[C@H](O)[C@@H]1OP(=O)(O)O` [crotonoyl-CoA], the “activity of InhA in the presence of the 4-carbon substrate” value in [6] (even at 8 mM, Quémard et al., 1995) is “no activity”.
On to `CCCCCCCCCCCCCCCCCC(=O)SCCNC(=O)CCNC(=O)[C@H](O)C(C)(C)COP(=O)(O)OP(=O)(O)OC[C@H]1O[C@@H](n2cnc3c(N)ncnc32)[C@H](O)[C@@H]1OP(=O)(O)O` [stearoyl-CoA], for which the “CMC (critical micellar concentration)” value in [5] was 12 µM.
For `NC(=O)C1=CN([C@@H]2O[C@H](COP(=O)(O)OP(=O)(O)OC[C@H]3O[C@@H](n4cnc5c(N)ncnc54)[C@H](O)[C@@H]3O)[C@@H](O)[C@H]2O)C=CC1` [NADH], the Km in data set [6] (comparison value for InhA, read-out: Km of the protein InhA for its cofactor) was 8 µM. Moreover, the “MabA activity on substitution of NADPH by NADH” value in [7] (NADH at the same concentration as NADPH in the kinetics test) is recorded as “total loss of the activity”.
For NADPH, the Km in data set [7] (read-out: Km of MabA, section 4.1, 25° C., 80 mM sodium phosphate, NADPH Km at 460 μM acetoacetyl-CoA, β-ketoacyl-CoA Km at 100 μM NADPH) was determined as 39 µM.
“protein MabA (Mycobacterium tuberculosis H37Rv)”: the Km worked out at 1530 ± 81 µM in [8] (25.0 °C); 1582 µM in [8] (setting [11]); 70 ± 8 µM in [9] (25.0 °C); 60 µM in data set [9] (setting [11]); 8.3 ± 0.8 µM in [10] (25.0 °C); 9 µM in [10] (setting [11]). Besides, the catalytic constant (kcat) in data set [8] (25.0 °C) is 1.9 ± 0.0 s⁻¹; in [9] (25.0 °C), 3.5 ± 0.0 s⁻¹; in [10] (25.0 °C), 4.3 ± 0.2 s⁻¹.
